Results: patent publication US10407422B2, “Triazolopyridine inhibitors of myeloperoxidase” (priority 2015, dated 2019)

Columns and labels:
[1] = target: T1, myeloperoxidase (MPO) (Homo sapiens (Human), UniProt P05164); experiment: MPO chlorination assay (APF assay); type: biochemical; conditions: potency range class
Summary of the method: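 Chlorinating activity followed by APF cleavage to fluorescein (485/535 nm, 3 min kinetic read) after adding APF and 10 μM H2O2. Beforehand, 200 pM enzyme, compound and 120 mM NaCl sat 10 min at room temperature in 100 mM KPi, pH 7.4. Initial-rate slopes gave % inhibition; IC50 by Hill-slope fit.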

[2] = target: T1, myeloperoxidase (MPO); experiment: MPO peroxidation assay (Amplex Red assay); type: biochemical; conditions: potency range class
Summary of the method: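 IC50 values come from a four-parameter fit of rates taken from the linear 180-540 s portion of a 15 min kinetic read of resorufin (Ex 535/Em 590 nm). Amplex Red (200 μM) plus 10 mM H2O2 was added after a 10 min room-temperature preincubation of inhibitor with 200 pM MPO and 40 nM H2O2 in 100 mM KPi, pH 7.4.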

T1 sequence (P05164 49-745): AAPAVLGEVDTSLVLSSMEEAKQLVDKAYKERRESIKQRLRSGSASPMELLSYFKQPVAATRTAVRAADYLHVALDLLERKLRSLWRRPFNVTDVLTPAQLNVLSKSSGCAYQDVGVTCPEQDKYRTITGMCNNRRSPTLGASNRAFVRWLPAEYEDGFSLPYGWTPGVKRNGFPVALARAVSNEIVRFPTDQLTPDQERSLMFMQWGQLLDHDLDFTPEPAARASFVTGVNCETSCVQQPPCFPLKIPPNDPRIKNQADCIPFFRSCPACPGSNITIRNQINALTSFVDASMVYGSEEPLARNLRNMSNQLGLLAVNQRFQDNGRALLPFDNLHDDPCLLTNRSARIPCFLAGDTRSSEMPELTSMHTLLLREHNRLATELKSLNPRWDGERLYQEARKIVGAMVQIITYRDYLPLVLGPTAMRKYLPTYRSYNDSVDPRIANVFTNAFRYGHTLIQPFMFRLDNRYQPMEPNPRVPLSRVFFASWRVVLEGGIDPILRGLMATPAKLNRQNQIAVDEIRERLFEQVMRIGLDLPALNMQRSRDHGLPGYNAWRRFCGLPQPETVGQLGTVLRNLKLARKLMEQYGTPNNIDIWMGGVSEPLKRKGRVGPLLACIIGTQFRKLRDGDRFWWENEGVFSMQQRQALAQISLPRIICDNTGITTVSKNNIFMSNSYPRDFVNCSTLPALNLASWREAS

Row | Compound | IC50 [1] [nM] | IC50 [2] [nM]
1 | COc1ncc(-c2cccc(Cn3cc(Cc4cc(N)nc5[nH]nnc45)cn3)c2)cn1 [Example 156, 7-[(1-{[3-(2-Methoxypyrimidin-5-yl)phenyl]methyl}-1H-pyrazol-4-yl)methyl]-3H-[1,2,3]triazolo[4,5-b]pyridin-5-amine] | 1 to 100 | 1 to 100
2 | N#Cc1cccc(Cn2cc(Cc3cc(N)nc4[nH]nnc34)cn2)c1 [Example 158, 3-{[4-({5-Amino-3H-[1,2,3]triazolo[4,5-b]pyridin-7-yl}methyl)-1H-pyrazol-1-yl]methyl}benzonitrile] | 1 to 100 | 1 to 100
3 | Nc1cc(Cn2nc3ccc(Cl)cc3n2)c2nn[nH]c2n1 [Example 163, 7-[(5-Chloro-2H-1,2,3-benzotriazol-2-yl)methyl]-3H-[1,2,3]triazolo[4,5-b]pyridin-5-amine] | 1000 to 10000 | 1000 to 10000
4 | Nc1cc(Cn2nnc3cccc(Cl)c32)c2nn[nH]c2n1 [Example 165, 7-[(7-Chloro-1H-1,2,3-benzotriazol-1-yl)methyl]-3H-[1,2,3]triazolo[4,5-b]pyridin-5-amine] | 101 to 999 | 101 to 999
5 | Nc1cc(Cn2nnc3ccc(Cl)cc32)c2nn[nH]c2n1 [Example 167, 7-[(6-Chloro-1H-1,2,3-benzotriazol-1-yl)methyl]-3H-[1,2,3]triazolo[4,5-b]pyridin-5-amine] | 101 to 999 | 101 to 999
6 | Nc1cc(Cn2nnc3cc(Cl)ccc32)c2nn[nH]c2n1 [Example 168, 7-[(5-Chloro-1H-1,2,3-benzotriazol-1-yl)methyl]-3H-[1,2,3]triazolo[4,5-b]pyridin-5-amine] | 101 to 999 | 1 to 100
7 | Nc1cc(Cn2nnc3cc(Cc4ccccc4)ccc32)c2nn[nH]c2n1 [Example 171, 7-[(5-Benzyl-1H-1,2,3-benzotriazol-1-yl)methyl]-3H-[1,2,3]triazolo[4,5-b]pyridin-5-amine] | 101 to 999 | 101 to 999
8 | Nc1cc(Cc2cnn(Cc3ccc4c(c3)CNC4)c2)c2nn[nH]c2n1 [Example 176, 7-((1-(Isoindolin-5-ylmethyl)-1H-pyrazol-4-yl)methyl)-3H-[1,2,3]triazolo[4,5-b]pyridin-5-amine] | 1 to 100 | 1 to 100
9 | Nc1cc(Cc2cnn(Cc3cccc(-n4cncn4)c3)c2)c2nn[nH]c2n1 [Example 178, 7-((1-(3-(1H-1,2,4-Triazol-1-yl)benzyl)-1H-pyrazol-4-yl)methyl)-3H-[1,2,3]triazolo[4,5-b]pyridin-5-amine] | 101 to 999 | 1 to 100
10 | Cn1nnc2cc(Cn3cc(Cc4cc(N)nc5[nH]nnc45)cn3)ccc21 [Example 179, 7-({1-[(1-Methyl-1H-1,2,3-benzotriazol-5-yl)methyl]-1H-pyrazol-4-yl}methyl)-3H-[1,2,3]triazolo[4,5-b]pyridin-5-amine] | 101 to 999 | 1 to 100
11 | Nc1cc(Cc2cnn(Cc3ccc4ncsc4c3)c2)c2nn[nH]c2n1 [Example 180, 7-{[1-(1,3-Benzothiazol-6-ylmethyl)-1H-pyrazol-4-yl]methyl}-3H-[1,2,3]triazolo[4,5-b]pyridin-5-amine] | 101 to 999 | 1 to 100
12 | CC1NCCc2cc(Cn3cc(Cc4cc(N)nc5[nH]nnc45)cn3)ccc21 (centres unmarked) [Example 181, 7-({1-[(1-Methyl-1,2,3,4-tetrahydroisoquinolin-6-yl)methyl]-1H-pyrazol-4-yl}methyl)-3H-[1,2,3]triazolo[4,5-b]pyridin-5-amine] | 1 to 100 | 1 to 100
13 | Nc1cc(Cc2cnn(CCC3CCNCC3)c2)c2nn[nH]c2n1 [Example 183, 7-({1-[2-(Piperidin-4-yl)ethyl]-1H-pyrazol-4-yl}methyl)-3H-[1,2,3]triazolo[4,5-b]pyridin-5-amine] | 101 to 999 | 1 to 100
14 | CNc1nc2ccc(Cn3cc(Cc4cc(N)nc5[nH]nnc45)cn3)cc2s1 [Example 186, 6-{[4-({5-Amino-3H-[1,2,3]triazolo[4,5-b]pyridin-7-yl}methyl)-1H-pyrazol-1-yl]methyl}-N-methyl-1,3-benzothiazol-2-amine] | 101 to 999 | 1 to 100

More lines, now with the values ahead:

Row | IC50 [1] [nM] | IC50 [2] [nM] | Compound
15 | 101 to 999 | 101 to 999 | Nc1cc(Cc2cnn(Cc3cccc(-c4ccc(OC(F)(F)F)cc4)c3)c2)c2nn[nH]c2n1 [Example 155, 7-{[1-({3-[4-(Trifluoromethoxy)phenyl]phenyl}methyl)-1H-pyrazol-4-yl]methyl}-3H-[1,2,3]triazolo[4,5-b]pyridin-5-amine]
16 | 101 to 999 | 101 to 999 | Nc1cc(Cc2cnn(Cc3cccc(-c4cnoc4)c3)c2)c2nn[nH]c2n1 [Example 157, 7-[(1-{[3-(1,2-Oxazol-4-yl)phenyl]methyl}-1H-pyrazol-4-yl)methyl]-3H-[1,2,3]triazolo[4,5-b]pyridin-5-amine]
17 | 101 to 999 | 1 to 100 | CN1CCc2cc(Cn3cc(Cc4cc(N)nc5[nH]nnc45)cn3)ccc2C1 [Example 159, -((1-((2-Methyl-1,2,3,4-tetrahydroisoquinolin-6-yl)methyl)-1H-pyrazol-4-yl)methyl)-3H-[1,2,3]triazolo[4,5-b]pyridin-5-amine]
18 | 1 to 100 | 1 to 100 | Nc1cc(Cn2nnc3ccccc32)c2nn[nH]c2n1 [Example 160, 7-(1H-1,2,3-Benzotriazol-1-ylmethyl)-3H-[1,2,3]triazolo[4,5-b]pyridin-5-amine]
19 | 1000 to 10000 | 101 to 999 | Nc1cc(Cn2ncc(-c3ccccc3)n2)c2nn[nH]c2n1 [Example 161, 7-[(4-Phenyl-2H-1,2,3-triazol-2-yl)methyl]-3H-[1,2,3]triazolo[4,5-b]pyridin-5-amine]
20 | 101 to 999 | 101 to 999 | Nc1cc(Cn2cc(-c3ccccc3)nn2)c2nn[nH]c2n1 [Example 162, 7-[(4-Phenyl-1H-1,2,3-triazol-1-yl)methyl]-3H-[1,2,3]triazolo[4,5-b]pyridin-5-amine]
21 | 1000 to 10000 | 1000 to 10000 | Nc1cc(Cn2nc3cccc(Cl)c3n2)c2nn[nH]c2n1 [Example 164, 7-[(4-Chloro-2H-1,2,3-benzotriazol-2-yl)methyl]-3H-[1,2,3]triazolo[4,5-b]pyridin-5-amine]
22 | 1000 to 10000 | 1000 to 10000 | Nc1cc(Cn2nnc3c(Cl)cccc32)c2nn[nH]c2n1 [Example 166]
23 | 101 to 999 | 101 to 999 | Nc1cc(Cn2nnc(-c3ccccc3)n2)c2nn[nH]c2n1 [Example 169, 7-[(5-Phenyl-2H-1,2,3,4-tetrazol-2-yl)methyl]-3H-[1,2,3]triazolo[4,5-b]pyridin-5-amine]
24 | 101 to 999 | 101 to 999 | Nc1cc(Cn2nnc3ccc(Cc4ccccc4)cc32)c2nn[nH]c2n1 [Example 170, 7-[(6-Benzyl-1H-1,2,3-benzotriazol-1-yl)methyl]-3H-[1,2,3]triazolo[4,5-b]pyridin-5-amine]
25 | 101 to 999 | 1 to 100 | COc1cc2ccc(Cn3cc(Cc4cc(N)nc5[nH]nnc45)cn3)cc2cn1 [Example 172, 7-((1-((3-Methoxyisoquinolin-7-yl)methyl)-1H-pyrazol-4-yl)methyl)-3H-[1,2,3]triazolo[4,5-b]pyridin-5-amine]
26 | 101 to 999 | 1 to 100 | COc1cc2cc(Cn3cc(Cc4cc(N)nc5[nH]nnc45)cn3)ccc2cn1 [Example 173, 7-((1-((3-Methoxyisoquinolin-6-yl)methyl)-1H-pyrazol-4-yl)methyl)-3H-[1,2,3]triazolo[4,5-b]pyridin-5-amine]
27 | 101 to 999 | 1 to 100 | COc1nccc2ccc(Cn3cc(Cc4cc(N)nc5[nH]nnc45)cn3)cc12 [Example 174, 7-((1-((1-Methoxyisoquinolin-7-yl)methyl)-1H-pyrazol-4-yl)methyl)-3H-[1,2,3]triazolo[4,5-b]pyridin-5-amine]
28 | 101 to 999 | 1 to 100 | Nc1cc(Cc2cnn(Cc3ccc4cc[nH]c(=O)c4c3)c2)c2nn[nH]c2n1 [Example 175, 7-((4-((5-Amino-3H-[1,2,3]triazolo[4,5-b]pyridin-7-yl)methyl)-1H-pyrazol-1-yl)methyl)isoquinolin-1(2H)-one]
29 | 101 to 999 | 1 to 100 | Nc1cc(Cc2cnn(Cc3cccc(-c4nccs4)c3)c2)c2nn[nH]c2n1 [Example 177, 7-((1-(3-(Thiazol-2-yl)benzyl)-1H-pyrazol-4-yl)methyl)-3H-[1,2,3]triazolo[4,5-b]pyridin-5-amine]
30 | 101 to 999 | 1 to 100 | Nc1cc(Cc2cnn(Cc3cccc(CN4CCNCC4)c3)c2)c2nn[nH]c2n1 [Example 182, 7-[(1-{[3-(Piperazin-1-ylmethyl)phenyl]methyl}-1H-pyrazol-4-yl)methyl]-3H-[1,2,3]triazolo[4,5-b]pyridin-5-amine]
31 | 101 to 999 | 1 to 100 | Nc1cc(Cc2cnn(CC3CCN(Cc4ccccc4)C3)c2)c2nn[nH]c2n1 (centres unmarked) [Example 184, 7-({1-[(1-Benzylpyrrolidin-3-yl)methyl]-1H-pyrazol-4-yl}methyl)-3H-[1,2,3]triazolo[4,5-b]pyridin-5-amine]
32 | 101 to 999 | 1 to 100 | Nc1cc(Cc2cnn(Cc3cccc([C@H]4CNC(=O)C4)c3)c2)c2nn[nH]c2n1 [Example 188, (S)-4-(3-((4-((5-Amino-3H-[1,2,3]triazolo[4,5-b]pyridin-7-yl)methyl)-1H-pyrazol-1-yl)methyl)phenyl)pyrrolidin-2-one]
33 | 101 to 999 | 1 to 100 | Nc1cc(Cc2cnn(Cc3cccc([C@@H]4CNC(=O)C4)c3)c2)c2nn[nH]c2n1 [Example 189, (R)-4-(3-((4-((5-Amino-3H-[1,2,3]triazolo[4,5-b]pyridin-7-yl)methyl)-1H-pyrazol-1-yl)methyl)phenyl)pyrrolidin-2-one]
34 | 1 to 100 | 1 to 100 | Nc1cc(Cc2cnn(Cc3cccc([C@@H]4CCNC4)c3)c2)c2nn[nH]c2n1 [Example 190]
